# Laboratory results from the METLIN SMRT retention time set (Domingo-Almenara et al. 2019).
# Assay: gradient 5% acetonitrile 3 min, to 50% in 2 min, to 85% in 15 min, held 3 min, 100 µL/min
# Settings: column: Zorbax Extend-C18 2.1 x 50 mm; eluents: water / acetonitrile, 0.1% formic acid
# In short: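 Standards, all pure, were combined into mixtures of ~100 molecules and run at 100 μL/min on a Zorbax Extend-C18 column (2.1 × 50 mm, 1.8 μm) with water and acetonitrile, each containing 0.1% formic acid. A coupled quadrupole time-of-flight mass spectrometer operated in positive and negative ionization mode. Retention time values come from computationally picked adduct peaks, each inspected manually.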
row,Structure (SMILES),RP-LC retention time [s]
1,CN1CCC=C(C(=O)N2c3ccccc3Sc3ccc(Cl)cc32)C1,762
2,O=C(NC1CCCCCC1)c1ccc(CN2CCN(C3CCCC3)C(=O)C2=O)cc1,823
3,Cc1ccc(C)c(N2CCN(S(=O)(=O)c3c(C)sc(C)c3-c3n[nH]c(C)c3C)CC2)c1,1190
4,CC1CCCN(CC(=O)Nc2nc(-c3ccccc3)cs2)C1 (centres undefined),655
5,O=C(N1CCc2ccccc2C1)C1(c2ccccc2)CCOCC1,891
6,COCc1cc2nn(CC(=O)Nc3cc(F)ccc3C)c(=O)n2c(-c2ccccc2)n1,853
7,Cn1cc(CN2CCC(C(=O)NCCN3CCN(c4ccccc4)CC3)CC2)c2ccccc21,571
8,Cc1ccc(CN2C(=O)CN(S(=O)(=O)c3ccccc3)CC2(C)C(=O)NCCC(C)C)cc1 (centres undefined),1040
9,Fc1ccc(OCc2nnc3sc(-c4ccc(Cl)cc4)nn23)cc1,1030
10,O=C(NCc1ccc(N2CCOCC2)nc1)c1cc(F)cc(F)c1,606
11,COCCOC1CN(C2CCN(Cc3cccc(C#N)c3)CC2)C12CCCCC2 (centres undefined),557
12,Cn1cc(-c2ccncc2)cc1C(=O)N1CCN(c2ccc(Cl)cc2)CC1,682
13,O=C(NCc1ccc(F)cc1)C1CCN(c2cc(N3CCSCC3)ncn2)CC1,666
14,O=C(Nc1ccc(N2CCN(c3ccccc3)C2=O)nc1)c1cccc(Cl)c1,959
15,CN(C)S(=O)(=O)N1CCC(c2nnc(C(F)(F)F)o2)CC1,758
16,N#Cc1ccc(NC(=O)Cn2cccc(-c3nc(-c4ccc(F)cc4)no3)c2=O)cc1,857
17,COc1ccc(F)cc1S(=O)(=O)N1CCC(n2cnnc2C)CC1,650
18,Cc1[nH]nc(-c2ccc(S(=O)(=O)N3CCC(C)CC3)o2)c1C,932
19,Cc1[nH]nc(-c2cc(S(=O)(=O)NCCc3ccccc3)c(C)s2)c1C,886
20,CCOC(=O)C1CCN(C(=O)C2CCCN2S(=O)(=O)c2cc3c(cc2Cl)NC(=O)CO3)CC1 (centres undefined),710
21,Cc1cccc(C(=O)N2CCc3cc(CNS(=O)(=O)Cc4ccccc4)ccc32)c1,972
22,CC(O)(CNC(=O)c1cnc2ccccc2n1)c1ccco1 (centres undefined),675
23,Cc1cccc(-n2ccn(CC#N)c(=O)c2=O)c1C,639

row,Structure (SMILES),RP-LC retention time [s]
1,O=C(NCc1csc(C2CCN(C(=O)c3ccc(F)c(F)c3)CC2)n1)C1CC1,705
2,CN(CC1CCOC1)C(=O)Nc1ccccc1C(F)(F)F (centres undefined),713
3,CN1C(=O)c2cc(C(=O)NCc3ccccc3)nn2CC1(C)C(=O)NC1CCCCCC1 (centres undefined),791
4,Cn1nc(C(=O)N2CCCC(C(=O)Nc3ccccc3)C2)c2c1CCN(C(=O)Cc1cccs1)C2 (centres undefined),748
5,CCC(=O)N1c2ccccc2CC1c1nc(C(C)C)no1 (centres undefined),913
6,CCOC(=O)c1c(C)[nH]c(C(=O)N2CCCC(C(=O)NCc3ccco3)C2)c1C (centres undefined),722
7,O=C(c1ccc(Cn2cncn2)cc1)N1CCc2ccccc2C1,687
8,CCOC(=O)c1nnc2c(-c3ccc(Br)cc3)c(C)nn2c1C,1100
9,Cc1ccc(-c2nc(CN3CCCC3=O)no2)cc1C,841
10,Cc1cnc(-c2ccccc2)n1CCNS(=O)(=O)Cc1ccccc1F,651
11,COc1cc(-c2nc3ccc(Cl)cn3c2Nc2ccc(C)cc2)ccc1O,730
12,COCCn1cc(CC(=O)NC(C)C)c2cccnc21,601
13,Cc1nc(N2CCOCC2)cc(N2CCN(C(=O)c3cccs3)CC2)n1,607
14,O=C(Nc1cccc(Cl)c1)N1CCN(CCn2c(-c3ccncc3)nc3cccnc32)CC1,623
15,COc1ccc(NC(=O)CN2CCc3[nH]c4c(C)ccc(C)c4c(=O)c3C2)cc1OC,614
16,Cn1c(=O)c2c(nc3n(CCN4CCOCC4)c(C(C)(C)C)cn23)n(C)c1=O,552
17,CCOC(=O)C1CCc2sc(NC(=O)c3cc(-c4cccs4)[nH]n3)nc21 (centres undefined),835
18,CCCNC(=O)CCc1nc2ccccc2n(CC(=O)NCc2ccccc2Cl)c1=O,794
19,C[C@H]1CN(C(=O)Nc2ccc(Cl)cc2)C[C@@H]1c1nc(-c2cccnc2)no1,863
20,CCN1C(=O)COc2ccc(-c3nc(NC(=O)c4ccccc4Br)sc3C)cc21,1010
21,CCOC(=O)c1c(S(=O)(=O)N2CCC(C(=O)NCc3ccc(C)cc3)CC2)c(C)n(CC)c1C,895
22,CCC(=O)Nc1ccc(C2(C(=O)NC(C)CC)CCCCC2)cc1 (centres undefined),845
23,Cc1ncoc1C(=O)N1CCC(c2noc(-c3ccncc3)n2)C1 (centres undefined),642

row,Structure (SMILES),RP-LC retention time [s]
1,Cc1ccc(-c2nc3cnccn3c2Nc2ccc(C(C)C)cc2)cc1,1140
2,Cc1cc(C)n2c(Nc3ccc(C(C)C)cc3)c(-c3ccc(Cl)cc3)nc2n1,985
3,CC1CCC(NC(=O)C2CCN(S(=O)(=O)c3cc(C(=O)N(C)C)cs3)CC2)CC1 (centres undefined),797
4,COCCn1cc2c3c(cccc31)CN(C(=O)Nc1cccc(Cl)c1C)CC2,1070
5,Cc1nc2cc(-c3noc(-c4cccc(Cl)c4)n3)ccc2n(C)c1=O,1140
6,O=C(c1ccc(Br)cc1)N1CC2C3CCC(O3)C2C1 (centres undefined),838
7,O=C(NCc1ccc(F)cc1F)c1cn2cc(Cl)ccc2n1,858
8,O=C(Nc1ccc(N2CCN(Cc3ccc(F)cc3)C2=O)nc1)c1ccsc1,787
9,CCCCCCCCCCNCCSSCc1ccc(Cl)cc1,1120
10,O=C(OCc1cccnc1)c1cn(-c2cccc(Cl)c2)c(=O)c2ccccc12,813
11,CC(C)n1cc(S(=O)(=O)N2CCN(c3ccccc3)CC2)c2cccnc21,1070
12,COc1ccc(NC(=O)CSc2cc(NCc3ccccc3Cl)ncn2)c(OC)c1,933
13,O=C(Nc1ccc(OCc2nnc(-c3ccccc3)o2)cc1)c1cccnc1,743
14,COc1ccc(NC(=O)C2CC(=O)N(c3ccc4c(c3)CCN4C(=O)C3CC3)C2)cc1 (centres undefined),740
15,CCc1ccc(CNC(=O)C2CCc3nc(N(CC)CC)ncc3C2)cc1 (centres undefined),786
16,CCCOc1nccnc1NC1CCN(C(=O)c2ccnn2C)CC1,706
17,Cc1ccc(Cn2nc3c(S(=O)(=O)N4CCCCC4)cccn3c2=O)cc1,925
18,Cn1c(=O)n(C)c2cc(N3CCOCC3)c(NC(=O)NCc3cccc(F)c3)cc21,705
19,Cc1ccc(-n2c(N3CCCC(C(=O)NC(C)c4cccnc4)C3)nc3ccsc3c2=O)cc1 (centres undefined),633
20,O=S(=O)(NCc1nc(-c2cccc(-c3csc(C4CC4)n3)c2)no1)c1ccccc1,1080
21,CN1c2ccccc2Oc2nnc(N3CCN(c4ccccn4)CC3)cc21,550
22,COc1ccc(OC)c(NC(=O)N2CCC(N3CCN(Cc4ccc(F)cc4)C(=O)C3=O)CC2)c1,773
23,Cc1cccc(N2CCN(C(=O)c3cn(-c4ccc(C#N)cc4)cn3)CC2)c1,759

row,Structure (SMILES),RP-LC retention time [s]
1,COC(=O)CNC(=O)Nc1ccc2nc(-c3ccc(F)cc3)cc(OC)c2c1,624
2,COc1nc2ccccc2nc1N1CCCC(C(=O)NCc2ccco2)C1 (centres undefined),951
3,CCc1ccc(S(=O)(=O)N2CCC(C(=O)NCc3csc(-c4cccs4)n3)CC2)cc1,987
4,Cc1oc2c(c1C(=O)NCc1ccc(F)c(F)c1)C1=NC(C)(C)CN1C=N2,666
5,CC1(C)CC[C@]2(C(=O)n3ccnc3)CC[C@]3(C)[C@H](C(=O)C=C4[C@@]5(C)C=C(C#N)C(=O)C(C)(C)[C@@H]5CC[C@]43C)[C@@H]2C1,1260
6,O=C(COc1ccc(F)cc1)N1CC(Oc2cccc(-c3nc(-c4ccccc4)no3)c2)C1,1190
7,CC(NC(=O)c1cnn2c(-c3ccc4c(c3)OCO4)ccnc12)c1ccc(F)cc1 (centres undefined),1000
8,Cc1c(C(=O)NC2CC2)cc(-c2ccccc2)n1C,605
9,CN1C(=C=Cc2cc(I)c(O)c(I)c2)C(C)(C)c2ccccc21,890
10,CCCN(CC1CCOC1)C(=O)c1cccc(Br)c1 (centres undefined),852
11,CSc1nc(Nc2cccc(Cl)c2)c(C#N)c(-c2ccccc2)n1,1280
12,Cc1ccc(F)cc1NS(=O)(=O)c1cc2c(s1)CCN(C(=O)C1CC1)C2,839
13,CCCn1c(=O)c(N2CCN(C(=O)CC(C)C)CC2)nc2ccccc21,1010
14,N#CSc1ccc(NC(=O)c2ccc(-n3cnnn3)cc2)cc1,754
15,Cn1cc(-c2cc3n(n2)CCC(=O)N3CC(=O)NCCc2c[nH]c3ccccc23)c2ccccc21,825
16,CC(C)c1nnc(-c2coc(S(=O)(=O)N3CCCCC3C)c2)o1 (centres undefined),904
17,COc1cc(NC(=O)N2CCC(CN3CCc4ccccc4C3)CC2)cc(OC)c1OC,612
18,CC(C)NC(=O)c1ccc(OCC2CCN(C(=O)c3ccccc3C(F)(F)F)CC2)cc1,899
19,Cc1nn(C)c(C)c1S(=O)(=O)N1CCN(C(=O)C(C)Oc2ccccc2)CC1 (centres undefined),761
20,COC(=O)C(Cc1ccccc1)NC(=O)Nc1c(-c2ccc(C)cc2)nc2ccccn12 (centres undefined),686
